# Measured values reported in ChEMBL document CHEMBL1201862, “PubChem BioAssay data set” (2004).
# Activity calls are given as the source filed them.
# Legend:
# BJ [1] = assay: BJ-TERT fibroblast viability loss – cell-based, RAS-independent, luminescence, dose response (AID 1933); format: functional; conditions: Homo sapiens
# BJ [2] = assay: BJ-TERT-LT-ST fibroblast viability loss – cell-based, RAS-independent, luminescence, dose response (AID 1935); format: functional; conditions: Homo sapiens;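 note: BJ fibroblasts immortalized with TERT plus LT and ST oncogenes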
# BJ [3] = assay: cells; format: functional, cell-based, Homo sapiens; conditions: Homo sapiens, BJ
# Cytochrome P450 2C19 = Cytochrome P450 2C19 (Homo sapiens, UniProt P33261); assay: Cytochrome panel assay with activity outcomes. Panel member name: p450-cyp2c19 Compounds with AC50 equal or less than 10 uM are considered active; format: functional; conditions: read-out: AC50
# [4] = DRD fibroblast viability loss – cell-based, non-viral oncogenic, luminescence, dose response (AID 1934); format: functional; conditions: Homo sapiens
# Cytochrome P450 3A4 = Cytochrome P450 3A4 (Homo sapiens, UniProt P08684); conditions: Potency;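 note: confirmatory qHTS run detecting inhibitors and substrates of CYP3A4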
# INS1 = assay: INS-1E survival protection against cytokine death – cell-based, luminescence, retest, dose response (AID 449756); format: functional; conditions: Rattus norvegicus;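 note: cell death triggered by IL-1 beta plus TNF-alpha plus IFN-gamma mixture; protective hits raise ATP signal compared with cytokine alone wells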
# [5] = biological target: T1, DNA repair and recombination protein RAD54-like (Homo sapiens, UniProt Q92698); assay: RAD54 Holliday junction migration blockers – biochemical, fluorescence, cherry-picked samples, dose series, confirmation (AID 651657); format: functional
# T1 sequence (Q92698 whole entry): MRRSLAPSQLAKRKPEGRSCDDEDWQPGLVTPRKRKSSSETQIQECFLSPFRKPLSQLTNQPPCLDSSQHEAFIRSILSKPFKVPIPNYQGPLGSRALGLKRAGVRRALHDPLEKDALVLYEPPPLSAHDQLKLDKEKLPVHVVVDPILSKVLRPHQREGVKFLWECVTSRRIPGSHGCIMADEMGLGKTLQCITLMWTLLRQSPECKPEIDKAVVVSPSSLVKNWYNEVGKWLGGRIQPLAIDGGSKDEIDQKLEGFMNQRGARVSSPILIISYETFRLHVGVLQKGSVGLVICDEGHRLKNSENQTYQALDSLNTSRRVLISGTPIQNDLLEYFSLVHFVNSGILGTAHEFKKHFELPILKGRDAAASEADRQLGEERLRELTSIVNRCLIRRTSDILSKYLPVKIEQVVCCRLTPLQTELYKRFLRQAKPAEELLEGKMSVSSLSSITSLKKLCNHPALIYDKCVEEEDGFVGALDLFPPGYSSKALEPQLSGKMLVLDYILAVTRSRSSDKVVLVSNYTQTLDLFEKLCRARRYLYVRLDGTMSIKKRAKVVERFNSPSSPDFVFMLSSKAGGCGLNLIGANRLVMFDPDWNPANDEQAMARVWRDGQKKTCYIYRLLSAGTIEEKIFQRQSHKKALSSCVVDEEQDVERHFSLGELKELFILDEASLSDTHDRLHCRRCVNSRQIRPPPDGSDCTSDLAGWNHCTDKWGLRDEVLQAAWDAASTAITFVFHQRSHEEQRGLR
# [6] = biological target: T2, Short transient receptor potential channel 4 (Mus musculus, UniProt Q9QUQ5); assay: block of DAMGO-driven TRPC4 calcium entry – cell-based, HEK293 TRPC4/mu-opioid, Fluo-4 calcium, dose response (AID 434942); format: functional;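 note: potency of inhibitors blocking the TRPC4 calcium response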
# T2 sequence (Q9QUQ5 whole entry): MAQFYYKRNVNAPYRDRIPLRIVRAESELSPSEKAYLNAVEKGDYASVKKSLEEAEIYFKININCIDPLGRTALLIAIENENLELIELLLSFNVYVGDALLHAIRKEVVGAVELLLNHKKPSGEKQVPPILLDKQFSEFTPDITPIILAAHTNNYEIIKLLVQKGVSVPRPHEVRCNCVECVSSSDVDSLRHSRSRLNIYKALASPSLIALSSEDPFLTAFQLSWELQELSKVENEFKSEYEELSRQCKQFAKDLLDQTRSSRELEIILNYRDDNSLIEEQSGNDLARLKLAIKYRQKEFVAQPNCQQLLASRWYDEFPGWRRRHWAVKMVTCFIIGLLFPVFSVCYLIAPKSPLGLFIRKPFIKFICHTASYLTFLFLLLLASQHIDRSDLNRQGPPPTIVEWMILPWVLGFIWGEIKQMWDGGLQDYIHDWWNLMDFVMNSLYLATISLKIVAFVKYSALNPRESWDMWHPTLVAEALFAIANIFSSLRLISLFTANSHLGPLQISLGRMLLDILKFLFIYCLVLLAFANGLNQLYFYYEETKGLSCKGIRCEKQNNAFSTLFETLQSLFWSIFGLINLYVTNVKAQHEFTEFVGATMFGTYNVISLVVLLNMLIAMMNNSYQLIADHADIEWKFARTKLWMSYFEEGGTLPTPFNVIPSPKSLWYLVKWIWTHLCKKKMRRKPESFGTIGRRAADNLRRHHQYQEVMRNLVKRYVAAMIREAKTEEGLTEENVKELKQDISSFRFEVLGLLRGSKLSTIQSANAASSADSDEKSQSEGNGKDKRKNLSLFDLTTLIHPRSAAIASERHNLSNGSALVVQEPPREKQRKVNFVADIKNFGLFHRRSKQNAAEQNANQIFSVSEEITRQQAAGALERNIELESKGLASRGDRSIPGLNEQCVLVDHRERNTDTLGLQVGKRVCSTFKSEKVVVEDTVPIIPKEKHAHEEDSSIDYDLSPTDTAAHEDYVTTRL
# [7] = biological target: T2, Short transient receptor potential channel 4; assay: calcium entry via TRPC4 opening agents – cell-based, HEK293 TRPC4/mu-opioid, Fluo-4 calcium, dose response (AID 434937); format: functional
# [8] = luciferase reporter signal suppression in cells – H4 neuroglioma cells, luminescence, dose response (AID 1990); format: functional, cell-based
# [9] = alpha-synuclein stem-loop luciferase translation blockers – H4 neuroglioma cells, luminescence, confirmation (AID 1988); format: functional, cell-based
# [10] = Luminescence Cell-Based Dose Response HTS to Identify Inhibitors of 5'UTR Stem-Loop Driven Prion Protein mRNA Translation in H4 Neuroglioblastoma Cells. [Related pubchem assays: 1827 (Project Summary), 1813 (Primary HTS)]; format: functional
# [11] = biological target: T3, Replicative DNA helicase DnaB (Mycobacterium tuberculosis, UniProt P9WMR3); assay: DnaB intein splicing inhibitors, dose response, biochemical, cell-free fluorescence (AID 449749); format: functional
# T3 sequence (P9WMR3 whole entry): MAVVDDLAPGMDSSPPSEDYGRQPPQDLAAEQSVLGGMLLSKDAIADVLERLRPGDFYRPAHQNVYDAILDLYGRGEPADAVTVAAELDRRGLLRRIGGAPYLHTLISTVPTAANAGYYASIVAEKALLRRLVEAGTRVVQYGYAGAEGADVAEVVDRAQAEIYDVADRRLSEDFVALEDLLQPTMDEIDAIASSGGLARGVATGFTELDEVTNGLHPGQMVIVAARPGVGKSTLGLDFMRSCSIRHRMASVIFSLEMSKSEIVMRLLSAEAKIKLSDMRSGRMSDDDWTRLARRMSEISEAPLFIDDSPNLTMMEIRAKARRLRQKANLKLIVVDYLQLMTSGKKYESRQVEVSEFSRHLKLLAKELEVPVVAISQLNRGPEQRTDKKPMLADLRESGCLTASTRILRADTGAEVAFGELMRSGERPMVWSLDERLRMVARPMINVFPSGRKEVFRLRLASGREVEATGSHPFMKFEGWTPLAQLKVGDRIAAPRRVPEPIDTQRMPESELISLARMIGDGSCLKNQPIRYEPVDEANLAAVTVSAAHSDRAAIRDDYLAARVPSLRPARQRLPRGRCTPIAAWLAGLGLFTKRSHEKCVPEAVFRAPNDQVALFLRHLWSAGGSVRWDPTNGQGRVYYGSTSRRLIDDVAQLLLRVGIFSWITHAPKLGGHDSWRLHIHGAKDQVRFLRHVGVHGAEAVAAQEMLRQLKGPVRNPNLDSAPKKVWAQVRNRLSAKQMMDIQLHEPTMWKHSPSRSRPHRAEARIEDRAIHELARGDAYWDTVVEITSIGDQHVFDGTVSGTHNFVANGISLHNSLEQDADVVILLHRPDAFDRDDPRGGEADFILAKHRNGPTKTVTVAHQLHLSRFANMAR
# Protein RecA = biological target: T4, Protein RecA (Mycobacterium tuberculosis, UniProt P9WHJ3); assay: Fluorescence Cell-Free Homogeneous Dose Retest to Identify Inhibitors of RecA-Intein Splicing Activity. [Related pubchem assays (depositor defined):AID2097, AID2223, AID489010, AID492950]; format: functional
# T4 sequence (P9WHJ3 whole entry): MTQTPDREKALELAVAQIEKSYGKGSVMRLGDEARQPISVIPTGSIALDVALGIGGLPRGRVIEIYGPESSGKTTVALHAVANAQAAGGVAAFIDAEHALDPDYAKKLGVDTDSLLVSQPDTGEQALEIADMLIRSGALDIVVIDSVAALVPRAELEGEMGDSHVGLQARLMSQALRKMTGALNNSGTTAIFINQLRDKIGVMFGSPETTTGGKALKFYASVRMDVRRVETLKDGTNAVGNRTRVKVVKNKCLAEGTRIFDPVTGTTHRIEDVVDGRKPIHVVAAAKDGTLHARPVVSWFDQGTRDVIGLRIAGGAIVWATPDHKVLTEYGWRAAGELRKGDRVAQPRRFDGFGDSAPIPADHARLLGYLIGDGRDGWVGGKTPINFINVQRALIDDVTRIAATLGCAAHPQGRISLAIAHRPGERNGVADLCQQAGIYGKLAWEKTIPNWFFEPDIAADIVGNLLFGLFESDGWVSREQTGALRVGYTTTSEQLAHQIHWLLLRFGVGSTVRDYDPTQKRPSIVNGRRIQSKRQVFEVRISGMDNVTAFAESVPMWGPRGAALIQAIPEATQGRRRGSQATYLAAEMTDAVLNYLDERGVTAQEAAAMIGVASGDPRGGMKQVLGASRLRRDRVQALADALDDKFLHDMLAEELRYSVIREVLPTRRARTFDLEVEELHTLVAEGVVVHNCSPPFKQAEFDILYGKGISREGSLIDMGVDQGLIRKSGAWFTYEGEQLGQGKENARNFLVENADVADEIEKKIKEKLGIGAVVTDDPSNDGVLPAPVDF
# [12] = intracellular Trypanosoma cruzi inhibitors in host cells – cell-based, plate reader, cherry-pick samples, set 3, dose response (AID 651818); format: functional;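 note: compounds incubated with infected cells for about four days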
# [13] = blockers of HIV-1 ZM109 envelope-driven cell-cell fusion – HeLa effector, CEM target cells, luciferase, cherry-pick, dose response (AID 652058); format: functional, cell-based;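 note: luciferase signal from HIV-1 Env mediated cell-cell fusion of effector and target cells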
# Cytochrome P450 3A4, sequence (P08684 whole entry): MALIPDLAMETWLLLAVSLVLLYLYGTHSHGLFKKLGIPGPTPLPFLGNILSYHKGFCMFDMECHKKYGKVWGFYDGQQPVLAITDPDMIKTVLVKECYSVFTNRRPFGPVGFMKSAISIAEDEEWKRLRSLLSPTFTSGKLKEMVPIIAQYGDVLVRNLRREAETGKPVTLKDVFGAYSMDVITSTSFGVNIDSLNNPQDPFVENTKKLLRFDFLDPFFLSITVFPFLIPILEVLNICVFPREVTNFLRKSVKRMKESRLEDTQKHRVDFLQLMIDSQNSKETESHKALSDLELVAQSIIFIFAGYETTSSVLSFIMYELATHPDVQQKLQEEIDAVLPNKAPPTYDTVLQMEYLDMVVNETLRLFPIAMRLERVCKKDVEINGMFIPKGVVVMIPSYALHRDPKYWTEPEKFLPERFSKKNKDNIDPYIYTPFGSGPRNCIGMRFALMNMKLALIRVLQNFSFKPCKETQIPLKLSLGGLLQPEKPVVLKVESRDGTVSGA
# Cytochrome P450 2C19, sequence (P33261 whole entry): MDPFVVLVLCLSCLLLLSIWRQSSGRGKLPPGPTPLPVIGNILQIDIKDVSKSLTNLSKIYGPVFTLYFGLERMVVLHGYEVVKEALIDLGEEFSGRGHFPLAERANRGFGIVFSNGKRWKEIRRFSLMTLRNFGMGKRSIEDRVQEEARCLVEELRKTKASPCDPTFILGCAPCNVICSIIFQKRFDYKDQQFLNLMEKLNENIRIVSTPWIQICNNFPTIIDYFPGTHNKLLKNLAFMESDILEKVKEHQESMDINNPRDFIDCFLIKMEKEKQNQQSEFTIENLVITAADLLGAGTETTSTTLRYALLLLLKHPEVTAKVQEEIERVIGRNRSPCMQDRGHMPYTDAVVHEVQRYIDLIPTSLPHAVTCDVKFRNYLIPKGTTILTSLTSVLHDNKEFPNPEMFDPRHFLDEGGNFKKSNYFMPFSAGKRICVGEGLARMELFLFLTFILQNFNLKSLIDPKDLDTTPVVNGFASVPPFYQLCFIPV
compound,measurement,setting,value
COc1ccc(-c2nc(-c3cccc(C)c3)nc(N3CCN(C)CC3)c2C#N)cc1,EC50,BJ [1],16.5 µM (inconclusive)
same,EC50,BJ [2],> 150 µM (not active)
same,EC50,BJ [3],23.3 µM (active)
same,AC50,Cytochrome P450 2C19,20 µM (inconclusive)
same,EC50,[4],14.8 µM (inconclusive)
FC(F)(F)c1ccc(CN2C[C@@H]3C(c4ccc(C(F)(F)F)cc4)C4(c5cccnc5)CC3(C4)[C@H]2c2ccccc2)cc1 (stereo not given in full),AC50,Cytochrome P450 3A4,31.6 µM (inconclusive)
same,AC50,INS1,6.2 µM (active)
CC(=O)OCC1OC(Oc2cc(OC(C)=O)c3c(=O)cc(-c4ccc(OC(C)=O)cc4)oc3c2)[C@@H](OC(C)=O)C(OC(C)=O)C1OC(C)=O (stereo not given in full),AC50,Cytochrome P450 3A4,10 µM (inconclusive)
Cc1cc(Nc2ccc3c(c2)OCCO3)c2cccc(C)c2n1,AC50,[5],13.9 µM (active)
CCOC(=O)C1(CC2CC2)CCN(Cc2c[nH]nc2-c2ccccc2)CC1,EC50,[6],0.944 µM (active)
same,EC50,[7],1.33 µM (active)
CCCCNc1nc(C)nc2c1nc(-c1ccccc1)n2CC1CCN(C)CC1,AC50,Cytochrome P450 3A4,15.8 µM (inconclusive)
Nc1cc(N2CCCCC2)c([N+](=O)[O-])cc1Cl,EC50,[6],5.31 µM (active)
Cc1ccn2c(CNCCCn3cccn3)c(C(=O)N3CCCCCC3)nc2c1,EC50,[6],2.11 µM (active)
COc1ccc(C(=O)CN2CCN(CCN3C(=O)c4cccc5cccc(c45)C3=O)CC2)cc1,EC50,[8],13.4 µM (active)
same,EC50,[9],15.3 µM (active)
same,EC50,[10],> 120 µM (not active)
same,AC50,[5],8.03 µM (active)
Cc1cccc(CN2CCCC(C(=O)Nc3ccccc3Oc3cccnc3)C2)c1 (stereo not given),EC50,[6],4.22 µM (active)
CC1(C)C(O)C=C[C@@]2(C)C1CC(=O)O[C@@]1(C)C3=CC(=O)OC(c4ccoc4)[C@]3(C)CCC21 (stereo not given in full),AC50,Cytochrome P450 3A4,2 µM (inconclusive)
Cc1nc2ccccc2c2oc(C(=O)NCCN3CCN(C)CC3)cc12,AC50,[5],39.9 µM (active)
COC(=O)C/N=C1/OC(=O)N2C(=O)C3=C4[C@@H](C[C@H]5C(=O)N(c6ccccc6)C(=O)[C@H]5[C@H]4[C@@]12Cc1ccccc1)[C@H]1C(=O)N(c2ccccc2)C(=O)[C@H]1[C@H]3C,AC50,Cytochrome P450 3A4,6.31 µM (inconclusive)
CCCn1c(-c2ccc(F)cc2)nc2c(NCCCN(CCO)CCO)nc(C)nc21,AC50,Cytochrome P450 3A4,15.8 µM (inconclusive)
Cc1nn(C(=O)CNS(=O)(=O)c2ccccc2)c(C)c1Sc1ccc(Cl)cc1,EC50,[6],1.33 µM (active)
same,AC50,[11],4.2 µM (active)
same,EC50,Protein RecA,17.2 µM (active)
Cc1ccc(N(CC(=O)NC2CCCC2)C(=O)CNC(=O)c2cccs2)cc1F,EC50,[6],5.96 µM (active)
CCN(CC)CCN=C(S)Nc1ccc2nc(N3CCN(CC)CC3)cc(C)c2c1,AC50,[5],15.3 µM (active)
CCCCCN1C2=NCCN2c2ccccc21,EC50,[6],0.841 µM (active)
C[C@@H]1CN([C@H](C)CO)C(=O)c2cccc(NC(=O)CCCCCC(=O)Nc3ccccc3N)c2O[C@H]1CN(C)Cc1ccc(-c2ccccc2)cc1,AC50,[12],2.18 µM (active)
C[C@@H]1CN([C@@H](C)CO)C(=O)c2cc(NS(=O)(=O)c3ccccc3)ccc2O[C@H]1CN(C)Cc1ccc(C(=O)Nc2ccccc2N)cc1,AC50,[12],4.83 µM (active)
Cc1ccc(S(=O)(=O)Nc2ccc3c(c2)CC(=O)N([C@H](C)CO)C[C@@H](C)[C@@H](CN(C)S(=O)(=O)c2ccccc2)O3)cc1,AC50,[12],2.27 µM (active)
C[C@@H]1CN([C@H](C)CO)C(=O)c2cccc(NC(=O)C3CCCCC3)c2O[C@H]1CN(C)Cc1ccc(C(F)(F)F)cc1,AC50,[12],2.83 µM (active)
COc1cccc(S(=O)(=O)N[C@@H]2CC[C@H](CCN)O[C@H]2CO)c1,AC50,[13],1.26 µM (active)
CCCc1nc(C(C)(C)O)c(C(=O)OCc2oc(=O)oc2C)n1Cc1ccc(-c2ccccc2-c2nnn[nH]2)cc1 [OLMESARTAN MEDOXOMIL],AC50,Cytochrome P450 3A4,25.1 µM (inconclusive)
